Assay results from US20040204417A1, “Novel benzothienyl or indole derivatives, preparation and use thereof as inhibitors of prenyl transferase proteins” (priority 2001, published 2004).

Columns and labels:
[1] = biological target: T1, protein farnesyl transferase (Bos taurus, UniProt P29702+P49355); assay: Evaluation of the inhibition of protein farnesyl transferase (dansyl-GCVLS fluorescence); assay type: biochemical, bovine; details: read-out: IC50 PFTase
T1 construct: partially purified from bovine brain by ion-exchange chromatography; from tissue; host or cells: bovine brain
Procedure: A) Evaluation of the inhibition of protein farnesyl transferase
The farnesylation of the dansylated peptide GCVLS, catalyzed with the enzyme protein farnesyl transferase, results in a change in the emission spectrum of the dansyl group, and especially an increase in the emission at 505 nm when the molecule is excited at 340 nm. When measured using the spectrofluorimeter, this emission is proportional to the activity of the enzyme (Pompliano et al., J. Am. Chem. Soc. 1992; 114: 7945-7946).
55 mM TRIS/HCl pH 7.5; 5.5 mM DTT; 5.5 mM MgCl2; 110 μM ZnCl2, 0.22% B-octyl-B D-glucopyrannoside.
Farnesyl pyrophosphate (FPP), (Sigma)
Dansylated peptide dansyl-GCVLS (Neosystem/Strasbourg, France)
The protein farnesyl transferase is partially purified from bovine brain by ion-exchange chromatography on Q-sepharose (Pharmacia) (Moores et al., J. Biol. Chem. 1991, 266: 14603-14610, Reiss et al., Cell 1990, 62: 81-88).
The reaction mixture containing 2 μM of FPP, 2 μM of dansyl GCVLS with or without (zero) the amount of enzyme giving an intensity of 100 on the spectrofluorimeter after incubation for 10 minutes at 37° C., is prepared on ice.
In an Eppendorf tube, 360 μl of reaction mixture are mixed with 40 μl of 10× concentrated test product or of solvent, and incubated for 10 minutes at 37° C. The reaction is quenched on ice and the fluorescence intensity is measured (excitation at 340 nm, 4 nm slit, emission at 505 nm, 10 nm slit). The tests are performed in duplicate. The results are expressed as a percentage of inhibition. Under these conditions, the derivatives of the present invention were identified as powerful inhibitors of protein farnesyl transferase (IC50<10 μM).
Adaptation of the method to a 96-wellformat:
The procedure is similar to that above, except that the measurements are performed in a “Black Fluorotrack 200” 96-well device (Greiner, Poitiers, France) and the readings are performed using a “Spectrametrix Gemini” 96-well fluorimeter (Molecular Devices, Sunnyvale, Calif., USA)

GGPT I = biological target: T2, GGPT I (Bos taurus, UniProt P29702+Q5EAD5); assay: Evaluation of the inhibition of geranyl geranyl transferase protein I (3H-GGPP incorporation into RhoA-GST); assay type: biochemical, bovine; details: read-out: IC50 PGGTase
T2 construct: GGPT I is partially purified from bovine brain by ion-exchange chromatography; from tissue; host or cells: bovine brain
Procedure: B) Evaluation of the inhibition of geranyl geraryl transferase protein I:
55 mM TRIS/HCl pH 7.5; 5.5 mM DTT; 5.5 mM MgCl2; 110 μM ZnCl2, 0.22% N-octyl-B D-glucopyrannoside.
^3H-geranylgeranyl pyrophosphate (GGPP), 66 μM, 15 CI/mmol, (Isotopchim)
Rho-GST recombinant protein
GGPT I is partially purified from bovine brain by ion-exchange chromatography on Q-sepharose (Pharmacia); elution at 0.23 and 0.4 M NaCl, respectively.
The reaction mixture containing 0.2 μM of ^3H-GGPP, 1 μM of RhoA-GST with or without (zero) 5 μl of GGPT/test, is prepared on ice.
In an Eppendorf tube, 45 μl of reaction mixture are mixed with 5 μl of 10× concentrated test product or of solvent, and incubated for 45 minutes at 37° C. A 45 μl aliquot is placed on a phosphocellulose P81 filter (Whatman, Maidstone, UK) numbered, washed with 50% ethanol, phosphoric acid (0.5%) and counted by scintillation.
The tests are performed in duplicate. The results are expressed as a percentage of inhibition.
Adaptation of the method to a 96-wellformat
The procedure is similar to that above, except that the measurements are performed in 96-well plates (Nunc, France) and the reactions are then passed through a 96-well “Unifilter” (Whatman, Maidstone, UK) containing a phosphocellulose P81 buffer using a “Filtermate 196” system (Packard, France).
After washing with 50% ethanol and phosphoric acid (0.5%), the filters are counted by scintillation on a “Packard Topcount” instrument.
The tests are performed in triplicate. The results are expressed as a percentage of inhibition.

SMILES	IC50 [1] [nM]	IC50 (GGPT I) [nM]
CC(C)C[C@H](NC(=O)c1cc2cc(N(Cc3cncn3Cc3ccc(C#N)cc3)S(=O)(=O)c3ccccc3)ccc2s1)C(=O)O [Example 33, (2S)-2-[(5-{benzenesulfonyl-[3-(4-cyanobenzyl)-3H-imidazol-4-ylmethyl]amino}benzo[b]thiophene-2-carbonyl)amino]-4-methylpentanoic acid]	6	70
COC(=O)[C@H](CCSC)NC(=O)c1cc2cc(N(Cc3cncn3Cc3ccc(C#N)cc3)S(=O)(=O)c3ccccc3)ccc2s1 [Example 40]	2	
N#Cc1ccc(Cn2cncc2CN(c2ccc3sc(C(=O)NCc4cccs4)cc3c2)S(=O)(=O)c2ccccc2)cc1 [Example 46, N-(Thiophen-2-ylmethyl)-5-{benzenesulfonyl-[3-(4-cyanobenzyl)-3H-imidazol-4-ylmethyl]amino}benzo[b]thiophene-2-carboxamide]	1	
N#Cc1ccc(Cn2cncc2CN(c2ccc3sc(C(=O)NC4CCCC4)cc3c2)S(=O)(=O)c2ccccc2)cc1 [Example 55, N-Cyclopentyl-5-{benzenesulfonyl-[3-(4-cyanobenzyl)-3H-imidazol-4-ylmethyl]amino}benzo[b]thiophene-2-carboxamide]	3	
N#Cc1ccc(Cn2cncc2CN(C(=O)c2cccs2)c2ccc3sc(C(=O)N4CCSCC4)cc3c2)cc1 [Example 91, N-[3-(4-Cyanobenzyl)-3H-imidazol-4-ylmethyl]-N-[2-(thiomorpholine-4-carbonyl)benzo[b]thiophen-5-yl]thiophene-2-carboxamide]	2	
CCCC(=O)N(Cc1cncn1Cc1ccc(C#N)cc1)c1ccc2sc(C(=O)N3CCSCC3)cc2c1 [Example 92, N-[3-(4-Cyanobenzyl)-3H-imidazol-4-ylmethyl]-N-[2-(thiomorpholine-4-carbonyl)benzo[b]thiophen-5-yl]butyramide]	2	
N#Cc1ccc(Cn2cncc2CN(C(=O)c2cccc(F)c2)c2ccc3sc(C(=O)N4CCSCC4)cc3c2)cc1 [Example 97, N-[3-(4-Cyanobenzyl)-3H-imidazol-4-ylmethyl]-N-[2-(thiomorpholine-4-carbonyl)benzo[b]thiophen-5-yl]-3-fluorobenzamide]	1	
N#Cc1ccc(Cn2cncc2CN(C(=O)c2ccccc2)c2ccc3[nH]c(C(=O)N4CCCCC4)c(-c4ccccc4)c3c2)cc1 [Example 164, N-[3-(4-Cyanobenzyl)-3H-imidazol-4-ylmethyl]-N-[3-phenyl-2-(piperidine-1-carbonyl)-1H-indol-5-yl]benzamide]	8	20
N#Cc1ccc(Cn2cncc2CN(C(=O)c2ccccc2)c2ccc3[nH]c(C(=O)N4CCSCC4)c(-c4ccccc4)c3c2)cc1 [Example 165, N-[3-(4-Cyanobenzyl)-3H-imidazol-4-ylmethyl]-N-[3-phenyl-2-(thiomorpholine-4-carbonyl)-1H-indol-5-yl]benzamide]	10	60

Continued, values first:

IC50 [1] [nM]	IC50 (GGPT I) [nM]	SMILES
4	10	CC(C)C[C@H](NC(=O)c1cc2c(NCc3cncn3Cc3ccc(C#N)cc3)cccc2s1)C(=O)O [Example 28, (2S)-2-[(4-{[3-(4-cyanobenzyl)-3H-imidazol-4-ylmethyl]amino}benzo[b]thiophene-2-carbonyl)amino]-4-methylpentanoic acid]
6		CSCC[C@H](NC(=O)c1cc2c(N(Cc3cncn3Cc3ccc(C#N)cc3)S(=O)(=O)c3ccccc3)cccc2s1)C(=O)O [Example 30, (2S)-2-[(4-{benzenesulfonyl-[3-(4-cyanobenzyl)-3H-imidazol-4-ylmethyl]amino}benzo[b]thiophene-2-carbonyl)amino]-4-(methylsulfanyl)butyric acid]
10		CCOC(=O)c1cc2cc(NCc3cncn3Cc3ccc(C#N)cc3)ccc2s1 [Example 34, Ethyl 5-{[3-(4-cyanobenzyl)-3H-imidazol-4-ylmethyl]amino}benzo[b]thiophene-2-carboxylate]
3		CCCCNC(=O)c1cc2cc(N(Cc3cncn3Cc3ccc(C#N)cc3)S(=O)(=O)c3ccccc3)ccc2s1 [Example 57, N-Butyl-5-{benzenesulfonyl-[3-(4-cyanobenzyl)-3H-imidazol-4-ylmethyl]amino}benzo[b]thiophene-2-carboxamide]
6		N#Cc1ccc(Cn2cncc2CN(C(=O)Cc2ccccc2)c2ccc3sc(C(=O)N4CCSCC4)cc3c2)cc1 [Example 100, N-[3-(4-Cyanobenzyl)-3H-imidazol-4-ylmethyl]-N-[2-(thiomorpholine-4-carbonyl)benzo[b]thiophen-5-yl]-2-phenylacetamide]
5		N#Cc1ccc(Cn2cncc2CN(C(=O)C2CCCCC2)c2ccc3sc(C(=O)N4CCSCC4)cc3c2)cc1 [Example 101, N-[3-(4-Cyanobenzyl)-3H-imidazol-4-ylmethyl]-N-[2-(thiomorpholine-4-carbonyl)benzo[b]thiophen-5-yl]cyclohexanecarboxamide]
8		CCCCN(Cc1cncn1Cc1ccc(C#N)cc1)c1ccc2sc(C(=O)N3CCSCC3)cc2c1 [Example 113, 4-[5-({Butyl[2-(thiomorpholine-4-carbonyl)benzo[b]thiophen-5-yl]amino}methyl)imidazol-1-ylmethyl]benzonitrile]
400	7	N#Cc1ccc(Cn2cncc2CN(C(=O)C2CCCCC2)c2ccc3[nH]c(C(=O)N4CCCCC4)c(-c4ccccc4)c3c2)cc1 [Example 167, Cyclohexanecarboxylic-[3-(4-cyanobenzyl)-3H-imidazol-4-ylmethyl]-[3-phenyl-2-(piperidine-1-carbonyl)-1H-indol-5-yl]amide acid]
